The target of data set [1] is T1, LPL (lipoprotein lipase) (Mus musculus, UniProt P11152).
T1 construct: endogenous in cells; host or cells: C2C12 cells, differentiated
T1 sequence (P11152 28-474): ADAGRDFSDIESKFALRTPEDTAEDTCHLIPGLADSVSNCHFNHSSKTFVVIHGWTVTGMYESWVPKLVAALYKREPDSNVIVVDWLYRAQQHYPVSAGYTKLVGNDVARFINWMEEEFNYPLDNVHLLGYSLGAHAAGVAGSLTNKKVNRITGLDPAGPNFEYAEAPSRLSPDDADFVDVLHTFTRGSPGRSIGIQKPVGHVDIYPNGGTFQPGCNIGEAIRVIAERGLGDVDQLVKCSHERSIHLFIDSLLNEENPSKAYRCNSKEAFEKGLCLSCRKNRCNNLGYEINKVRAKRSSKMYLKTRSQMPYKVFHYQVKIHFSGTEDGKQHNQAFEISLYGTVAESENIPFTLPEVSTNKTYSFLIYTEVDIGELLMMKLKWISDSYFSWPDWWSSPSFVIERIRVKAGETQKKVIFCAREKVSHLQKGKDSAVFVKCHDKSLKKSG
Kind of data set: Confirmation test of LPL activation effect in mouse skeletal muscle cells (C2C12 cells). It is filed as cell-based. The following applies: 8 hours exposure, vs control group. The procedure, abridged: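 Differentiated human skeletal muscle myoblasts or mouse C2C12 cells were exposed to compound at 10 μM or 30 μM in 0.3% DMSO medium for 8 h, then LPL was released with heparin-containing Tris-HCl buffer (10 min, 37° C). Supernatant LPL activity was taken as the fluorescence increase 10–70 min after adding substrate; % increase is calculated versus the DMSO control mean.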

Results on 13 molecules are retold here after patent US8329739B2, “Phenylimidazole compounds” (Otsuka Pharmaceutical Factory, Inc., priority 2009, dated 2012).

SMILES strings stand for the structures.

The term melting point denotes the temperature of the solid-liquid transition.

`COc1cc(OCc2ccc(C#N)cc2)ccc1-c1c[nH]c(-c2ccc(C(C)(C)C)cc2)n1` [Example 116] yielded a melting point of 177 to 184 °C. Moreover, the “Rate of increase in LPL activity” value in data set [1] (amount of addition 10 μM) turned out to be 36%. In addition, the “Rate of increase in LPL activity” value in data set [1] (amount of addition 30 μM) is 84%.
The like results for `COc1cc(OCc2ccc(Cl)cc2)ccc1-c1c[nH]c(-c2cc(Cl)cc(Cl)c2)n1.Cl` [Example 118] were, in that order, 233 to 241 °C, 80% and 102%.
`COc1cc(OCc2ccc(Cl)cc2)ccc1-c1c[nH]c(-c2cccc(C(F)(F)F)c2)n1.Cl` [Example 119] registered a melting point of 231 to 236 °C. For the same molecule, the “Rate of increase in LPL activity” value in data set [1] (amount of addition 10 μM) was 67%. Moreover, the “Rate of increase in LPL activity” value in data set [1] (amount of addition 30 μM) turned out to be 174%.
The matching figures for `COc1cc(OCc2ccccc2)ccc1-c1c[nH]c(-c2cc(F)cc(F)c2)n1.Cl` [Example 121]: 247 to 249 °C, 113% and 270%.
The matching figures for `COc1cc(OCc2ccccc2)ccc1-c1c[nH]c(-c2ccc(Cl)cc2)n1` [Example 123]: 160 to 163 °C, 11% and 42%.
As for `COc1cc(OCc2ccccc2)ccc1-c1c[nH]c(-c2ccc(Cl)c(Cl)c2)n1.Cl` [Example 124], the melting point is 242 to 245 °C. In addition, the “Rate of increase in LPL activity” value in data set [1] (amount of addition 10 μM) is reported as 93%. The “Rate of increase in LPL activity” value in data set [1] (amount of addition 30 μM) was determined as 113%.
With `COc1cc(OCc2ccccc2)ccc1-c1c[nH]c(-c2cccc(C(F)(F)F)c2)n1` [Example 126], the melting point lay in the range of 159 to 162 °C. Moreover, the “Rate of increase in LPL activity” value in data set [1] (amount of addition 10 μM) amounted to 99%. Besides, the “Rate of increase in LPL activity” value in data set [1] (amount of addition 30 μM) turned out to be 297%.
The matching figures for `COc1ccc(-c2nc(-c3ccc(OCc4ccccc4)cc3OC)c[nH]2)cc1.Cl` [Example 128]: 154 to 165 °C, 49% and 208%.
The matching figures for `COc1cccc(-c2nc(-c3ccc(OCc4ccccc4)cc3OC)c[nH]2)c1.Cl` [Example 130]: 236 to 238 °C, 9% and 170%.
Regarding `COc1cc(OCc2ccc(Cl)cc2F)ccc1-c1c[nH]c(-c2ccc(C(F)(F)F)cc2)n1` [Example 132], the melting point lay in the range of 165 to 166 °C. Moreover, the “Rate of increase in LPL activity” value in data set [1] (amount of addition 10 μM) came to 35%. In data set [1] (amount of addition 30 μM), the “Rate of increase in LPL activity” value is recorded as 213%.
For the molecule `COc1cc(OCc2ccc(Cl)cc2F)ccc1-c1c[nH]c(-c2ccc(F)cc2)n1.Cl` [Example 133], the melting point is 259 to 260 °C. The “Rate of increase in LPL activity” value in data set [1] (amount of addition 10 μM) amounted to 63%. Moreover, the “Rate of increase in LPL activity” value in data set [1] (amount of addition 30 μM) amounted to 236%.
For `COc1cccc(-c2nc(-c3ccc(OCc4ccc(Cl)cc4F)cc3OC)c[nH]2)c1.Cl` [Example 134], the melting point is 245 to 249 °C. Moreover, the “Rate of increase in LPL activity” value in data set [1] (amount of addition 10 μM) was 32%. Moreover, in data set [1] (amount of addition 30 μM), the “Rate of increase in LPL activity” value came out at 308%.
The matching figures for `COc1cc(OCc2ccc(Cl)cc2F)ccc1-c1c[nH]c(-c2ccccc2)n1.Cl` [Example 139]: 249 to 251 °C, 71% and 128%.
